# Data published in patent publication US20220372013A2, “PIPERIDINE-2,6-DIONE DERIVATIVES AND CROHN'S DISEASE TREATING” (Tianjin Hemay Pharmaceutical Sci-Tech Co., Ltd, priority 2016, published 2022).
# Read-outs that look alike come from different tables or passages of the source. Marks after values point to notes of the source that are not given here.
# Tests used:
# [1] = system: DNBS-Induced Inflammatory Bowel Disease Models in Rats; assay: Biological Example 4: DNBS-induced inflammatory bowel disease models in rats; format: in vivo, Wistar rats; conditions: 30 mg/Kg i.g. qd × 7; for Adhesion Degree of Colon / Colon weight to length ratio / Ulcer area of colon / inhibition in vivo at 30 mg/kg: day 7; for Body weight: Mean ± SD; for inhibition in vivo at 30 mg/kg: Rattus norvegicus, po, 168 h
# Description: 102 male Wistar rats were fasted for 72 hours. A 5% glucose injection was administered subcutaneously twice during fasting. 88 rats with normal conditions and moderate body weight were selected from the fasting rats. The animals were randomly divided into 11 groups according to the body weight (see Table 11. Grouped Table).
# The animals were anesthetized with ether after 72 hours fasting. A specially made gavage device was slowly inserted into the enteric cavity at 8 cm from the anus. The model control group and each test group were administered with 0.5 mL of 50 mg/mL DNBS in 30% ethanol solution. The normal control group was administered with 0.5 mL of 30% ethanol solution. The animals were inverted in anesthesia for 15 minutes. The day when the model was prepared was day 0 of the experiment. After 4 hours of DNBS induction, the corresponding drug or the corresponding volume of 1% CMC-Na was administered once per day. On day 7 of the experiment, the animals were euthanized to score the colon adhesion degree, measure the length of colon and ulcer area, weigh colon and calculate the colon weight to length ratio.
# One-way ANOVA analysis of the length of colon and colon weight per length of rats was performed by SPSS22. Statistical analyses between groups were performed. The adhesion degree was scored. Mann-Whitney U non-parametric test was performed on ulcer area. Statistical analyses between groups were performed.
# Calculation Formula of Inhibitory rate of weight increase per length: (Colon weight to length ratio in model group−Colon weight to length ratio in administration group)/(Colon weight to length ratio in model group−Colon weight to length ratio in blank group)
# mice = assay: Biological Example 5: acute toxicity experiment of single oral administration in mice; format: in vivo; conditions: single oral 1000 mg/Kg, Mean ± SD
# Description: The mice were fasted one day before the experiment. On the day of the experiment, 6 mice (ICR mice, body weight of 19-21 g, three females and three males) were selected in each experiment group. First of all, one female and one male were selected to orally give 1000 mg/Kg, and observed for 5-10 minutes. If there were no obvious side effects, the remaining 4 animals were orally given the same dose, and observed for 10-15 minutes. If no animal died, the animals were placed in a box to balancedly feed for 7 days. The state was observed and the body weight was recorded daily.
# Observation Indexes within 0-15 Minutes after Administration
# Activity: restlessness, hyperactivity
# Nervous system response: tremor, spasm, convulsion, ataxia, posture abnormality, etc.
# Autonomic nerve: exophthalmos, salivation, tears, urination (hematuria), diarrhea, piloerection, breathing, etc.
# State of Animal: lethargy, hyperactivity, excitement, hair loss, diarrhea, abnormal behavior, death, etc.
# [2] = read-out: Inhibitory rate of colon adhesion
# [3] = read-out: Inhibitory rate of ulcer area of colon
# [4] = read-out: Inhibitory rate of weight increase per length
SMILES,Adhesion Degree of Colon [1],Colon weight to length ratio [1],Ulcer area of colon [1],Body weight ([1]; Day 1),Body weight ([1]; Day 2),Body weight ([1]; Day 3),Body weight ([1]; Day 4),Body weight ([1]; Day 5),Body weight ([1]; Day 6),Body weight ([1]; Day 7),"inhibition in vivo at 30 mg/kg [1, 2]","inhibition in vivo at 30 mg/kg [1, 3]","inhibition in vivo at 30 mg/kg [1, 4]","Daily Body Weight (mice; Female mice, Day 1)","Daily Body Weight (mice; Female mice, Day 2)","Daily Body Weight (mice; Female mice, Day 3)","Daily Body Weight (mice; Female mice, Day 4)","Daily Body Weight (mice; Female mice, Day 5)","Daily Body Weight (mice; Female mice, Day 6)","Daily Body Weight (mice; Female mice, Day 7)",other results
"COCCN1C(=O)CCC(F)(N2C(=O)c3cccc(N)c3C2=O)C1=O (centres unmarked) [Example 14, 4-amino-2-(1-(2-methoxyethyl)-3-fluoro-2,6-dioxopiperidin-3-yl)isoindolin-1,3-dione]",0.8 ± 0.5 point,102 ± 18 mg/cm,0.1 ± 0.4# cm^2,126.2 ± 8.7 g,125.1 ± 10.5 g,129.5 ± 17.8 g,136.5 ± 19.7 g,146.4 ± 19.4 g,147.6 ± 19.9 g,165.7 ± 20.8 g,62.2%,95.8%,70.6%,,,,,,,,
"COCCN1C(=O)CCC(N2C(=O)c3c(F)c(F)c(F)c(F)c3C2=O)C1=O (centres unmarked) [Example 5, 4,5,6,7-tetrafluoro-2-(1-(2-methoxyethyl)-2,6-dioxopiperidin-3-yl)isoindolin-1,3-dione]",0.8 ± 0.5 point,99 ± 14 mg/cm,0.2 ± 0.5 cm^2,126.7 ± 8.9 g,125.0 ± 11.0 g,126.9 ± 14.0 g,133.9 ± 13.3 g,141.9 ± 14.9 g,146.9 ± 13.9 g,159.7 ± 14.3 g,62.2%,91.7%,74.1%,,,,,,,,
"COCCN1C(=O)CCC(N2C(=O)c3cccc(C)c3C2=O)C1=O (centres unmarked) [Example 24, 4-methyl-2-(1-(2-methoxyethyl)-2,6-dioxopiperidin-3-yl)-isoindolin-1,3-dione]",0.8 ± 0.7 point,99 ± 18 mg/cm,0.3 ± 0.3 cm^2,129.1 ± 5.5 g,130.9 ± 10.4 g,133.2 ± 14.5 g,135.3 ± 13.6 g,144.9 ± 12.6 g,145.9 ± 13.3 g,165.6 ± 12.1 g,62.2%,87.5%,74.1%,18.4 ± 0.7 g,22.4 ± 1.0 g,23.4 ± 1.0 g,23.6 ± 0.9 g,24.3 ± 0.6 g,24.7 ± 0.6 g,24.8 ± 1.5 g,"Daily Body Weight (mice; Male mice, Day 1): 17.7 ± 0.2 g; Daily Body Weight (mice; Male mice, Day 2): 22.3 ± 0.7 g; Daily Body Weight (mice; Male mice, Day 3): 24.5 ± 1.0 g; Daily Body Weight (mice; Male mice, Day 4): 25.2 ± 1.0 g; Daily Body Weight (mice; Male mice, Day 5): 27.2 ± 1.3 g; Daily Body Weight (mice; Male mice, Day 6): 28.1 ± 2.0 g; Daily Body Weight (mice; Male mice, Day 7): 28.9 ± 1.9 g"
"COCCN1C(=O)CCC(N2C(=O)c3cccc(O)c3C2=O)C1=O (centres unmarked) [Example 23, 4-hydroxy-2-(1-(2-methoxyethyl)-2,6-dioxopiperidin-3-yl)isoindolin-1,3-dione]",0.8 ± 0.7 point,105 ± 12 mg/cm,0.2 ± 0.3# cm^2,126.6 ± 8.5 g,123.2 ± 9.0 g,123.9 ± 7.6 g,136.5 ± 11.8 g,148.1 ± 14.5 g,152.1 ± 15.9 g,166.8 ± 12.8 g,62.2%,91.7%,67.1%,19.1 ± 0.6 g,22.4 ± 0.4 g,23.0 ± 0.1 g,23.0 ± 0.1 g,24.6 ± 0.4 g,24.8 ± 0.7 g,24.6 ± 0.4 g,"Daily Body Weight (mice; Male mice, Day 1): 19.4 ± 0.8 g; Daily Body Weight (mice; Male mice, Day 2): 24.6 ± 1.2 g; Daily Body Weight (mice; Male mice, Day 3): 24.5 ± 0.6 g; Daily Body Weight (mice; Male mice, Day 4): 24.5 ± 0.6 g; Daily Body Weight (mice; Male mice, Day 5): 25.4 ± 1.2 g; Daily Body Weight (mice; Male mice, Day 6): 28.1 ± 0.8 g; Daily Body Weight (mice; Male mice, Day 7): 29.0 ± 0.8 g"
"COCCN1C(=O)CCC(N2C(=O)c3ccc(O)c(N)c3C2=O)C1=O (centres unmarked) [Example 8, 4-amino-5-hydroxy-2-(1-(2-methoxyethyl)-2,6-dioxopiperidin-3-yl)isoindolin-1,3-dione]",0.9 ± 0.6 point,106 ± 13 mg/cm,0.2 ± 0.4 cm^2,128.6 ± 5.3 g,128.2 ± 9.2 g,131.6 ± 13.5 g,136.8 ± 17.4 g,149.1 ± 16.7 g,149.7 ± 16.8 g,164.1 ± 17.9 g,52.7%,91.7%,65.9%,18.9 ± 0.9 g,22.9 ± 0.9 g,24.3 ± 0.7 g,24.3 ± 1.1 g,25.3 ± 1.4 g,25.8 ± 1.5 g,26.0 ± 2.5 g,"Daily Body Weight (mice; Male mice, Day 1): 18.0 ± 1.3 g; Daily Body Weight (mice; Male mice, Day 2): 23.1 ± 0.9 g; Daily Body Weight (mice; Male mice, Day 3): 24.6 ± 1.0 g; Daily Body Weight (mice; Male mice, Day 4): 25.6 ± 1.7 g; Daily Body Weight (mice; Male mice, Day 5): 27.2 ± 2.2 g; Daily Body Weight (mice; Male mice, Day 6): 28.2 ± 2.2 g; Daily Body Weight (mice; Male mice, Day 7): 29.2 ± 2.6 g"
"C[S+]([O-])CCN1C(=O)CCC(N2C(=O)c3cccc(N)c3C2=O)C1=O (centres unmarked) [Example 12, 4-amino-2-(1-(2-methylsulfinylethyl)-2,6-dioxopiperidin-3-yl)isoindolin-1,3-dione]",0.8 ± 0.7 point,92 ± 16 mg/cm,0.4 ± 0.9 cm^2,129.1 ± 5.1 g,128.7 ± 6.6 g,133.9 ± 9.8 g,141.8 ± 12.0 g,149.2 ± 11.0 g,149.5 ± 11.2 g,167.3 ± 11.3 g,62.2%,83.3%,82.4%,18.7 ± 0.7 g,21.8 ± 0.6 g,22.6 ± 0.1 g,22.6 ± 0.0 g,23.7 ± 0.6 g,25.3 ± 1.0 g,25.7 ± 1.6 g,"Daily Body Weight (mice; Male mice, Day 1): 18.5 ± 0.2 g; Daily Body Weight (mice; Male mice, Day 2): 24.3 ± 0.6 g; Daily Body Weight (mice; Male mice, Day 3): 24.9 ± 0.1 g; Daily Body Weight (mice; Male mice, Day 4): 24.9 ± 0.1 g; Daily Body Weight (mice; Male mice, Day 5): 26.1 ± 0.7 g; Daily Body Weight (mice; Male mice, Day 6): 27.8 ± 0.7 g; Daily Body Weight (mice; Male mice, Day 7): 28.5 ± 0.7 g"
